# How the values were obtained:
# Format in all cases: cell-based
# [1] = biological target: proteins of U3A human fibrosarcoma cells (4462 proteins detected) (Homo sapiens, UniProt Q92585); details: protein MAML1, U3A cells
# [2] = biological target: proteins of U3A human fibrosarcoma cells (4462 proteins detected) (Homo sapiens, UniProt Q3B726); details: protein TWISTNB; U3A cells
# [3] = biological target: proteins of U3A human fibrosarcoma cells (4462 proteins detected) (Homo sapiens, UniProt P36542); details: protein ATP5C1; U3A cells
# [4] = biological target: proteins of U3A human fibrosarcoma cells (4462 proteins detected) (Homo sapiens, UniProt Q9NVT9); details: protein ARMC1; U3A cells
# [5] = biological target: proteins of U3A human fibrosarcoma cells (4462 proteins detected) (Homo sapiens, UniProt Q9HCD5); details: protein NCOA5; U3A cells
# [6] = biological target: proteins of U3A human fibrosarcoma cells (4462 proteins detected) (Homo sapiens, UniProt Q96T37); details: protein RBM15; U3A cells
# [7] = biological target: proteins of U3A human fibrosarcoma cells (4462 proteins detected) (Homo sapiens, UniProt A0MZ66); details: protein KIAA1598; U3A, 10 μM, 2 h
# [8] = biological target: proteins of U3A human fibrosarcoma cells (4462 proteins detected) (Homo sapiens, UniProt Q8IVL6); details: protein LEPREL2; soluble abundance after heat, U3A cells
# [9] = biological target: proteins of U3A human fibrosarcoma cells (4462 proteins detected) (Homo sapiens, UniProt Q9Y6G3); details: protein MRPL42; soluble abundance after heat, U3A cells
# [10] = biological target: proteins of U3A human fibrosarcoma cells (4462 proteins detected) (Homo sapiens, UniProt O95059); details: protein RPP14; soluble abundance after heat, U3A cells
# [11] = biological target: proteins of U3A human fibrosarcoma cells (4462 proteins detected) (Homo sapiens, UniProt Q9NTW7); details: protein ZFP64, U3A cells
# [12] = biological target: proteins of U3A human fibrosarcoma cells (4462 proteins detected) (Homo sapiens, UniProt Q14839); details: protein CHD4; soluble abundance after heat, U3A cells
# [13] = biological target: proteins of U3A human fibrosarcoma cells (4462 proteins detected) (Homo sapiens, UniProt Q9P2K3); details: protein RCOR3; U3A cells
# [14] = biological target: proteins of U3A human fibrosarcoma cells (4462 proteins detected) (Homo sapiens, UniProt Q9UEY8); details: protein ADD3; U3A cells
# [15] = biological target: proteins of U3A human fibrosarcoma cells (4462 proteins detected) (Homo sapiens, UniProt Q8WW12); details: protein PCNP, U3A cells
# [16] = biological target: proteins of U3A human fibrosarcoma cells (4462 proteins detected) (Homo sapiens, UniProt O00299); details: protein CLIC1, U3A cells
# [17] = biological target: proteins of U3A human fibrosarcoma cells (4462 proteins detected) (Homo sapiens, UniProt P50990); details: protein CCT8; U3A cells
# [18] = biological target: proteins of U3A human fibrosarcoma cells (4462 proteins detected) (Homo sapiens, UniProt Q9UKX7); details: protein NUP50; soluble abundance after heat, U3A cells
# [19] = biological target: proteins of U3A human fibrosarcoma cells (4462 proteins detected) (Homo sapiens, UniProt Q96A26); details: protein FAM162A; U3A, 10 μM, 2 h
# [20] = biological target: proteins of U3A human fibrosarcoma cells (4462 proteins detected) (Homo sapiens, UniProt P62487); details: protein POLR2G; U3A cells
# [21] = biological target: proteins of U3A human fibrosarcoma cells (4462 proteins detected) (Homo sapiens, UniProt P32320); details: protein CDA, U3A cells
# [22] = biological target: proteins of U3A human fibrosarcoma cells (4462 proteins detected) (Homo sapiens, UniProt Q9H5Q4); details: protein TFB2M; U3A cells
# [23] = biological target: proteins of U3A human fibrosarcoma cells (4462 proteins detected) (Homo sapiens, UniProt Q9NSV4); details: protein DIAPH3, U3A cells
# [24] = biological target: proteins of U3A human fibrosarcoma cells (4462 proteins detected) (Homo sapiens, UniProt Q8N129); details: protein CNPY4, U3A cells
# [25] = biological target: proteins of U3A human fibrosarcoma cells (4462 proteins detected) (Homo sapiens, UniProt Q05397); details: protein PTK2; U3A cells
# [26] = biological target: proteins of U3A human fibrosarcoma cells (4462 proteins detected) (Homo sapiens, UniProt P50213); details: protein IDH3A; U3A cells
# [27] = biological target: proteins of U3A human fibrosarcoma cells (4462 proteins detected) (Homo sapiens, UniProt Q8IVL0); details: protein NAV3, U3A cells
# [28] = biological target: proteins of U3A human fibrosarcoma cells (4462 proteins detected) (Homo sapiens, UniProt Q15149); details: protein PLEC; soluble abundance after heat, U3A cells
# [29] = biological target: proteins of U3A human fibrosarcoma cells (4462 proteins detected) (Homo sapiens, UniProt Q8IYB5); details: protein SMAP1; soluble abundance after heat, U3A cells
# [30] = biological target: proteins of U3A human fibrosarcoma cells (4462 proteins detected) (Homo sapiens, UniProt O95801); details: protein TTC4; soluble abundance after heat, U3A cells
# Sequence of proteins of U3A human fibrosarcoma cells (4462 proteins detected) (Homo sapiens, UniProt Q8WW12) (Q8WW12 whole entry): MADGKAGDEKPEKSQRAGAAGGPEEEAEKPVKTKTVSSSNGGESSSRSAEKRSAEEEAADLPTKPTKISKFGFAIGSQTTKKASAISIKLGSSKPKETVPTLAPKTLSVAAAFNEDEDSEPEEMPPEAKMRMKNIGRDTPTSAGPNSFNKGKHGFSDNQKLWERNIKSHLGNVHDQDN
# Sequence of proteins of U3A human fibrosarcoma cells (4462 proteins detected) (Homo sapiens, UniProt P50213) (P50213 28-366): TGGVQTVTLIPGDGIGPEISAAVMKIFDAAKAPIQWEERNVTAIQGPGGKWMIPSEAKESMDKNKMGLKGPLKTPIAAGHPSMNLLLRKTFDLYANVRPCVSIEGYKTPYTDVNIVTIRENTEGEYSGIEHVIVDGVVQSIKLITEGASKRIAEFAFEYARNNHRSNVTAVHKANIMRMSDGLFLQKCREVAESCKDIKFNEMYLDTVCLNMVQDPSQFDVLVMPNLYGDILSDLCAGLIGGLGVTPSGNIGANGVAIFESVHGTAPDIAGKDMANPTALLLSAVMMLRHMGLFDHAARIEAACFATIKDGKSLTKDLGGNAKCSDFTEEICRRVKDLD
# Sequence of proteins of U3A human fibrosarcoma cells (4462 proteins detected) (Homo sapiens, UniProt Q8IVL6) (Q8IVL6 21-736): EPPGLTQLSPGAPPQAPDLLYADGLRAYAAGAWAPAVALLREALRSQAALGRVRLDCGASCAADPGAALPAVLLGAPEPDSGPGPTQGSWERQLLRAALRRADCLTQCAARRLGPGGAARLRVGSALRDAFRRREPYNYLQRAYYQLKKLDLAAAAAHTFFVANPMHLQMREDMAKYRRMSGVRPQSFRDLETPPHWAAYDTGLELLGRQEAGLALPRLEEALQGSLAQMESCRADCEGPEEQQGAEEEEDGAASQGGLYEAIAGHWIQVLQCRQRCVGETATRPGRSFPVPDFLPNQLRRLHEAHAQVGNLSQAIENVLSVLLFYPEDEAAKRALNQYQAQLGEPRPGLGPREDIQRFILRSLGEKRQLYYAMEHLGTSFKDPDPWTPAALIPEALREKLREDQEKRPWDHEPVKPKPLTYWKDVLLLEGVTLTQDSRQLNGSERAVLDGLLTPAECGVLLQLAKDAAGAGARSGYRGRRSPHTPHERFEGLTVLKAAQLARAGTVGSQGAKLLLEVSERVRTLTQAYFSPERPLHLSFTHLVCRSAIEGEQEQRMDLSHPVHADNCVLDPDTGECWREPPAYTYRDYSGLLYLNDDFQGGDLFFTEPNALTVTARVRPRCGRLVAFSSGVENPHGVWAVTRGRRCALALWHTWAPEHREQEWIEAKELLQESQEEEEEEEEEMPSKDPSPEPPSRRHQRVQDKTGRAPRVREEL
# Sequence of proteins of U3A human fibrosarcoma cells (4462 proteins detected) (Homo sapiens, UniProt Q96A26) (Q96A26 whole entry): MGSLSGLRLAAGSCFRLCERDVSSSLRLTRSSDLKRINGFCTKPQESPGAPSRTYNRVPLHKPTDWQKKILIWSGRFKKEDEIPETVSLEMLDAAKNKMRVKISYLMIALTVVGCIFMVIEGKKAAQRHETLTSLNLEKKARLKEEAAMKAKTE
# Sequence of proteins of U3A human fibrosarcoma cells (4462 proteins detected) (Homo sapiens, UniProt Q05397) (Q05397 whole entry): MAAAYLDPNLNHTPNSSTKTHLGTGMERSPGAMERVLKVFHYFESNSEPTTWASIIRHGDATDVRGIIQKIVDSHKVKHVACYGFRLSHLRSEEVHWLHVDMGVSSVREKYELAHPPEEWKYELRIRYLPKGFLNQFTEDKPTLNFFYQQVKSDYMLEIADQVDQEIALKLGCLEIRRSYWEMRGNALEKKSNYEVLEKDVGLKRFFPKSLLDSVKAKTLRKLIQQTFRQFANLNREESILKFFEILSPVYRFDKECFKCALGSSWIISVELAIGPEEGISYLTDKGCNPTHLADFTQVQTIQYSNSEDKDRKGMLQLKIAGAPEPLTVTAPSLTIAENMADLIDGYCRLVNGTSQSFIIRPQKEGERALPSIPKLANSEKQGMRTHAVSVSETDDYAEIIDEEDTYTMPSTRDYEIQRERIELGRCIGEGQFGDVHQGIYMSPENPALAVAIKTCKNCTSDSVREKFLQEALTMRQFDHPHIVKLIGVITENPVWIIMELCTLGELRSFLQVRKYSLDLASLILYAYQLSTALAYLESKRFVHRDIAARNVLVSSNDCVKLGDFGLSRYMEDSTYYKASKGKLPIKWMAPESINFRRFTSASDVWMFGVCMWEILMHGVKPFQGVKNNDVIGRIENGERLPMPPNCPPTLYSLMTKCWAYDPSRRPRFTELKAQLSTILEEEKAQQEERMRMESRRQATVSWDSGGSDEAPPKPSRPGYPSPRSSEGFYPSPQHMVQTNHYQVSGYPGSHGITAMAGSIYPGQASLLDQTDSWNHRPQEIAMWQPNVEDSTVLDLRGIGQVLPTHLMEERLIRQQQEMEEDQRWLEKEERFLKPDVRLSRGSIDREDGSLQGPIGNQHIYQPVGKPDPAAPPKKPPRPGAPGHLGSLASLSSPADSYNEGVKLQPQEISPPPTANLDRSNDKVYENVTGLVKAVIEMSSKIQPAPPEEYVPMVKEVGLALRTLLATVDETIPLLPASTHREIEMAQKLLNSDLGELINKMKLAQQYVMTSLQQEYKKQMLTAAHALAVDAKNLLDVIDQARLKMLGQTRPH
# Sequence of proteins of U3A human fibrosarcoma cells (4462 proteins detected) (Homo sapiens, UniProt P50990) (P50990 whole entry): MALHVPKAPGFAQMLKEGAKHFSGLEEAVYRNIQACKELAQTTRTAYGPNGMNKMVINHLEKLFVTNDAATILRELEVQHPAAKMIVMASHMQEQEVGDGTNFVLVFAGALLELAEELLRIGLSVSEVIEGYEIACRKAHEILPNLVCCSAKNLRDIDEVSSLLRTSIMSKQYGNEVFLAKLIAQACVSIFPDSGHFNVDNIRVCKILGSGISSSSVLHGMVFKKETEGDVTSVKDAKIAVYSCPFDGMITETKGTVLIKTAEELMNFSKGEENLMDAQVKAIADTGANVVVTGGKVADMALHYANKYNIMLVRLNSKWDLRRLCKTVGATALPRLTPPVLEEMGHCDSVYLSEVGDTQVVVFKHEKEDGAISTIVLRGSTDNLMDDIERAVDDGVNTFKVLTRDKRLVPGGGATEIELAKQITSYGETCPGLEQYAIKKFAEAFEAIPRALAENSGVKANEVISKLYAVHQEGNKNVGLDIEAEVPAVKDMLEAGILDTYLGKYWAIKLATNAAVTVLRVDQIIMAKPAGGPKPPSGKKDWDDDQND
# Sequence of proteins of U3A human fibrosarcoma cells (4462 proteins detected) (Homo sapiens, UniProt A0MZ66) (A0MZ66 whole entry): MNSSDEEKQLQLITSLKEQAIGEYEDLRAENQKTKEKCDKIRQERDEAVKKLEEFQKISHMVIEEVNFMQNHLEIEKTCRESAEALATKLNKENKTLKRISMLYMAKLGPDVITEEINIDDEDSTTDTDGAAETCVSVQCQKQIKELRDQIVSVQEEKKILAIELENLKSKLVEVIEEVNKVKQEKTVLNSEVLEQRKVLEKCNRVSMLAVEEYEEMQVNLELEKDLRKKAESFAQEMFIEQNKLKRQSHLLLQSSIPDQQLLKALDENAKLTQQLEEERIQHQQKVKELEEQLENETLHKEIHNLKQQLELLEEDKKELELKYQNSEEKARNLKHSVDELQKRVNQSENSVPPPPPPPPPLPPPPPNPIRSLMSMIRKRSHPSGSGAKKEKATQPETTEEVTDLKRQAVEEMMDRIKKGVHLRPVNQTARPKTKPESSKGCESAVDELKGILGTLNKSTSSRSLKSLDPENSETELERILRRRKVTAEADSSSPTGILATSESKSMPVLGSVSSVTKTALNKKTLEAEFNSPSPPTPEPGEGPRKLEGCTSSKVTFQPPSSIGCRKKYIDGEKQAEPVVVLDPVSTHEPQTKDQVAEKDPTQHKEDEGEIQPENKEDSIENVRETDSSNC
# Sequence of proteins of U3A human fibrosarcoma cells (4462 proteins detected) (Homo sapiens, UniProt Q9UEY8) (Q9UEY8 whole entry): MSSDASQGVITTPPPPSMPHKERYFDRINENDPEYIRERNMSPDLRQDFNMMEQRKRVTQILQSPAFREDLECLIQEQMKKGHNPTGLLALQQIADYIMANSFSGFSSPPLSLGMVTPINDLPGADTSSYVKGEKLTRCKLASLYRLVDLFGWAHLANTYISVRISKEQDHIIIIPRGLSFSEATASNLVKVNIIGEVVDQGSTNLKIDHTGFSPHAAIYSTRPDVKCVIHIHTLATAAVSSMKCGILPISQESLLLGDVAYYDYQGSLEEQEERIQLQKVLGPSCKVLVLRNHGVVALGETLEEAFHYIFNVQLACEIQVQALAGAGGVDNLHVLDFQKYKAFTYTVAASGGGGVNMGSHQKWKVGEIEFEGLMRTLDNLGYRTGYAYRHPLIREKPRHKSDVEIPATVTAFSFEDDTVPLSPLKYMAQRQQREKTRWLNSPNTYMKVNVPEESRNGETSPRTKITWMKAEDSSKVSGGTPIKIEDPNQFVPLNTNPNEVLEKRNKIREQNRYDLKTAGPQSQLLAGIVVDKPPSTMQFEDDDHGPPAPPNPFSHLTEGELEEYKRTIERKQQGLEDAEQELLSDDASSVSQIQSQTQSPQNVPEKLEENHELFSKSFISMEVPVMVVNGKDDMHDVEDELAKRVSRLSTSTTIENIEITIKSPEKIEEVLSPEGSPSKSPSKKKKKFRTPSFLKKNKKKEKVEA
# Sequence of proteins of U3A human fibrosarcoma cells (4462 proteins detected) (Homo sapiens, UniProt P32320) (P32320 whole entry): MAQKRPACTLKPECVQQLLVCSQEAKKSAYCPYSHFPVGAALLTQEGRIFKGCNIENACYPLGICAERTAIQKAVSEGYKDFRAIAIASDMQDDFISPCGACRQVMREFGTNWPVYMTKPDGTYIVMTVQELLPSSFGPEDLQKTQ
# Sequence of proteins of U3A human fibrosarcoma cells (4462 proteins detected) (Homo sapiens, UniProt Q9H5Q4) (Q9H5Q4 20-396): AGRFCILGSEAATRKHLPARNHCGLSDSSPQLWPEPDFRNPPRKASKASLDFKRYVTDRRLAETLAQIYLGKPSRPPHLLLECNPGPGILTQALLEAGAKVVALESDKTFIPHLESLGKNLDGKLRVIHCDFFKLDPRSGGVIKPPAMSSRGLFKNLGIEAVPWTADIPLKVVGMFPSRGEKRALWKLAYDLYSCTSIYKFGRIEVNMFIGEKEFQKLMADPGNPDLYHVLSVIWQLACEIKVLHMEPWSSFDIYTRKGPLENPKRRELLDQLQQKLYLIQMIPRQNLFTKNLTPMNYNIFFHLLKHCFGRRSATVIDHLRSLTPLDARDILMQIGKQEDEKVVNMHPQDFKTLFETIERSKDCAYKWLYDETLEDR
# Sequence of proteins of U3A human fibrosarcoma cells (4462 proteins detected) (Homo sapiens, UniProt O95059) (O95059 whole entry): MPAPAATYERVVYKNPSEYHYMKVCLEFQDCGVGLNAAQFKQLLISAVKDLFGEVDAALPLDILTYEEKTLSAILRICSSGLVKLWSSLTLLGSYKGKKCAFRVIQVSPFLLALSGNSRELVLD
structure (smiles),measurement,setting,value
CCc1nc(N)nc(N)c1-c1ccc(Cl)cc1 [pyrimethamine],Log2 (PYR/DMSO),[1],-0.04
same,Log2 (PYR/DMSO),[2],0.16
same,Log2 (PYR/DMSO),[3],0.21
same,Log2 (PYR/DMSO),[4],0.16
same,Log2 (PYR/DMSO),[5],0.17
same,Log2 (PYR/DMSO),[6],0.17
same,"Log2 (PYR/DMSO), KIAA1598",[7],-0.28
same,Log2 (PYR/DMSO),[8],0.14
same,Log2 (PYR/DMSO),[9],0.14
same,Log2 (PYR/DMSO),[10],0.14
same,Log2 (PYR/DMSO),[11],-0.04
same,Log2 (PYR/DMSO),[12],0.14
same,Log2 (PYR/DMSO),[13],0.21
same,Log2 (PYR/DMSO),[14],0.16
same,Log2 (PYR/DMSO),[15],-0.04
same,Log2 (PYR/DMSO),[16],-0.03
same,Log2 (PYR/DMSO),[17],0.16
same,Log2 (PYR/DMSO),[18],0.15
same,"Log2 (PYR/DMSO), FAM162A",[19],-0.37
same,Log2 (PYR/DMSO),[20],0.18
same,Log2 (PYR/DMSO),[21],-0.04
same,Log2 (PYR/DMSO),[22],0.18
same,Log2 (PYR/DMSO),[23],-0.04
same,Log2 (PYR/DMSO),[24],-0.04
same,Log2 (PYR/DMSO),[25],0.16
same,Log2 (PYR/DMSO),[26],0.16
same,Log2 (PYR/DMSO),[27],-0.04
same,Log2 (PYR/DMSO),[28],0.14
same,Log2 (PYR/DMSO),[29],0.15
same,Log2 (PYR/DMSO),[30],0.13

# Source: PMC8800111 (The Journal of Biological Chemistry, 2021)
